# According to PubChem BioAssay AID1259407 (Chemical Carcinogenesis Research Information System (CCRIS), 2018):
# Calls of active or inactive are those of the source. How the calls were made is not given here.
# System: CCRIS mutagenicity, Ames/micronucleus/aberration tests
# Test: CCRIS mutagenicity studies
# [1] = Test System: AMES SALMONELLA TYPHIMURIUM, Strain/Indicator: TA97, Metabolic Activation: NONE, Method: PREINCUBATION
# [2] = Test System: AMES SALMONELLA TYPHIMURIUM, Strain/Indicator: TA98, Metabolic Activation: NONE, Method: PREINCUBATION
# [3] = Test System: AMES SALMONELLA TYPHIMURIUM, Strain/Indicator: TA98, Metabolic Activation: NONE, Method: STANDARD PLATE
# [4] = Test System: AMES SALMONELLA TYPHIMURIUM, Strain/Indicator: TA100, Metabolic Activation: NONE, Method: PREINCUBATION
# [5] = Test System: AMES SALMONELLA TYPHIMURIUM, Strain/Indicator: TA100, Metabolic Activation: NONE, Method: STANDARD PLATE
# [6] = Test System: AMES SALMONELLA TYPHIMURIUM, Strain/Indicator: TA102, Metabolic Activation: NONE, Method: PREINCUBATION
# [7] = Test System: AMES SALMONELLA TYPHIMURIUM, Strain/Indicator: TA1535, Metabolic Activation: NONE, Method: STANDARD PLATE
# [8] = Test System: AMES SALMONELLA TYPHIMURIUM, Strain/Indicator: TA1537, Metabolic Activation: NONE, Method: STANDARD PLATE
# [9] = Test System: AMES SALMONELLA TYPHIMURIUM, Strain/Indicator: TA98, Metabolic Activation: RAT, LIVER, S-9, AROCLOR 1254, Method: STANDARD PLATE
compound,measurement,setting,value
CC(=O)c1cc2c(cc1C)C(C)(C)C(C)CC2(C)C (stereo unspecified),mutagenic call,[1],inactive; negative
same,mutagenic call,"Test System: AMES SALMONELLA TYPHIMURIUM, Strain/Indicator: TA97, Metabolic Activation: NONE, Method: STANDARD PLATE",inactive; negative
same,mutagenic call,"Test System: AMES SALMONELLA TYPHIMURIUM, Strain/Indicator: TA97, Metabolic Activation: RAT LIVER S-9, AROCLOR 1254, Method: STANDARD PLATE",inactive; negative
same,mutagenic call,"Test System: AMES SALMONELLA TYPHIMURIUM, Strain/Indicator: TA97, Metabolic Activation: RAT LIVER S-9, PHENOBARBITAL, BETA-NAPHTHOFLAVONE, Method: PREINCUBATION",inactive; negative
same,mutagenic call,"Test System: AMES SALMONELLA TYPHIMURIUM, Strain/Indicator: TA97, Metabolic Activation: RAT LIVER S-9, PHENOBARBITAL, BETA-NAPHTHOFLAVONE, Method: STANDARD PLATE",inactive; negative
same,mutagenic call,[2],inactive; negative
same,mutagenic call,[3],inactive; negative
same,mutagenic call,"Test System: AMES SALMONELLA TYPHIMURIUM, Strain/Indicator: TA98, Metabolic Activation: RAT LIVER S-9, AROCLOR 1254, Method: STANDARD PLATE",inactive; negative
same,mutagenic call,"Test System: AMES SALMONELLA TYPHIMURIUM, Strain/Indicator: TA98, Metabolic Activation: RAT LIVER S-9, PHENOBARBITAL, BETA-NAPHTHOFLAVONE, Method: PREINCUBATION",inactive; negative
same,mutagenic call,"Test System: AMES SALMONELLA TYPHIMURIUM, Strain/Indicator: TA98, Metabolic Activation: RAT LIVER S-9, PHENOBARBITAL, BETA-NAPHTHOFLAVONE, Method: STANDARD PLATE",inactive; negative
same,mutagenic call,[4],inactive; negative
same,mutagenic call,[5],inactive; negative
same,mutagenic call,"Test System: AMES SALMONELLA TYPHIMURIUM, Strain/Indicator: TA100, Metabolic Activation: RAT LIVER S-9, AROCLOR 1254, Method: STANDARD PLATE",inactive; negative
same,mutagenic call,"Test System: AMES SALMONELLA TYPHIMURIUM, Strain/Indicator: TA100, Metabolic Activation: RAT LIVER S-9, PHENOBARBITAL, BETA-NAPHTHOFLAVONE, Method: PREINCUBATION",inactive; negative
same,mutagenic call,"Test System: AMES SALMONELLA TYPHIMURIUM, Strain/Indicator: TA100, Metabolic Activation: RAT LIVER S-9, PHENOBARBITAL, BETA-NAPHTHOFLAVONE, Method: STANDARD PLATE",inactive; negative
same,mutagenic call,[6],inactive; negative
same,mutagenic call,"Test System: AMES SALMONELLA TYPHIMURIUM, Strain/Indicator: TA102, Metabolic Activation: NONE, Method: STANDARD PLATE",inactive; negative
same,mutagenic call,"Test System: AMES SALMONELLA TYPHIMURIUM, Strain/Indicator: TA102, Metabolic Activation: RAT LIVER S-9, AROCLOR 1254, Method: STANDARD PLATE",inactive; negative
same,mutagenic call,"Test System: AMES SALMONELLA TYPHIMURIUM, Strain/Indicator: TA102, Metabolic Activation: RAT LIVER S-9, PHENOBARBITAL, BETA-NAPHTHOFLAVONE, Method: PREINCUBATION",inactive; negative
same,mutagenic call,"Test System: AMES SALMONELLA TYPHIMURIUM, Strain/Indicator: TA102, Metabolic Activation: RAT LIVER S-9, PHENOBARBITAL, BETA-NAPHTHOFLAVONE, Method: STANDARD PLATE",inactive; negative
same,mutagenic call,"Test System: AMES SALMONELLA TYPHIMURIUM, Strain/Indicator: TA1535, Metabolic Activation: NONE, Method: PREINCUBATION",inactive; negative
same,mutagenic call,[7],inactive; negative
same,mutagenic call,"Test System: AMES SALMONELLA TYPHIMURIUM, Strain/Indicator: TA1535, Metabolic Activation: RAT LIVER S-9, PHENOBARBITAL, BETA-NAPHTHOFLAVONE, Method: PREINCUBATION",inactive; negative
same,mutagenic call,"Test System: AMES SALMONELLA TYPHIMURIUM, Strain/Indicator: TA1535, Metabolic Activation: RAT LIVER S-9, PHENOBARBITAL, BETA-NAPHTHOFLAVONE, Method: STANDARD PLATE",inactive; negative
same,mutagenic call,"Test System: AMES SALMONELLA TYPHIMURIUM, Strain/Indicator: TA1537, Metabolic Activation: NONE, Method: PREINCUBATION",inactive; negative
same,mutagenic call,[8],inactive; negative
same,mutagenic call,"Test System: AMES SALMONELLA TYPHIMURIUM, Strain/Indicator: TA1537, Metabolic Activation: RAT LIVER S-9, PHENOBARBITAL, BETA-NAPHTHOFLAVONE, Method: PREINCUBATION",inactive; negative
same,mutagenic call,"Test System: AMES SALMONELLA TYPHIMURIUM, Strain/Indicator: TA1537, Metabolic Activation: RAT LIVER S-9, PHENOBARBITAL, BETA-NAPHTHOFLAVONE, Method: STANDARD PLATE",inactive; negative
same,mutagenic call,"Test System: ESCHERICHIA COLI, Strain/Indicator: WP2 UVR A, Metabolic Activation: NONE, Method: PREINCUBATION",inactive; negative
same,mutagenic call,"Test System: ESCHERICHIA COLI, Strain/Indicator: WP2 UVR A, Metabolic Activation: NONE, Method: STANDARD PLATE",inactive; negative
same,mutagenic call,"Test System: ESCHERICHIA COLI, Strain/Indicator: WP2 UVR A, Metabolic Activation: RAT LIVER S-9, PHENOBARBITAL, BETA-NAPHTHOFLAVONE, Method: PREINCUBATION",inactive; negative
same,mutagenic call,"Test System: ESCHERICHIA COLI, Strain/Indicator: WP2 UVR A, Metabolic Activation: RAT LIVER S-9, PHENOBARBITAL, BETA-NAPHTHOFLAVONE, Method: STANDARD PLATE",inactive; negative
same,mutagenic call,"Test System: UDS RAT HEPATOCYTES, Metabolic Activation: NONE, Method: NET NUCLEAR GRAIN COUNT",inactive; negative
CC12OOC1(COC(=O)Nc1ccc(Cl)cc1)Oc1ccccc12 (stereo unspecified),mutagenic call,[4],active; positive
O=[N+]([O-])c1cc2c([nH]c3ccccc32)c([N+](=O)[O-])c1O,mutagenic call,"Test System: AMES SALMONELLA TYPHIMURIUM, Strain/Indicator: TA98(NR), Metabolic Activation: NONE, Method: STANDARD PLATE",active; positive
same,mutagenic call,"Test System: AMES SALMONELLA TYPHIMURIUM, Strain/Indicator: TA98(NR), Metabolic Activation: RAT, LIVER, S-9, AROCLOR 1254, Method: STANDARD PLATE",active; positive
same,mutagenic call,[3],active; positive
same,mutagenic call,[9],active; positive
Cc1ccc(C(=O)n2ncc(Cl)c(Cl)c2=O)cc1,mutagenic call,[3],inactive; negative
same,mutagenic call,[9],inactive; negative
same,mutagenic call,[5],inactive; negative
same,mutagenic call,"Test System: AMES SALMONELLA TYPHIMURIUM, Strain/Indicator: TA100, Metabolic Activation: RAT, LIVER, S-9, AROCLOR 1254, Method: STANDARD PLATE",inactive; negative
same,mutagenic call,[7],inactive; negative
same,mutagenic call,"Test System: AMES SALMONELLA TYPHIMURIUM, Strain/Indicator: TA1535, Metabolic Activation: RAT, LIVER, S-9, AROCLOR 1254, Method: STANDARD PLATE",inactive; negative
same,mutagenic call,[8],inactive; negative
same,mutagenic call,"Test System: AMES SALMONELLA TYPHIMURIUM, Strain/Indicator: TA1537, Metabolic Activation: RAT, LIVER, S-9, AROCLOR 1254, Method: STANDARD PLATE",inactive; negative
O=C(CCCCl)N=c1sn(C(=O)CCCCl)c2ccc(Cl)cc12,mutagenic call,"Test System: AMES SALMONELLA TYPHIMURIUM, Strain/Indicator: TA100, Metabolic Activation: S-9, Method: STANDARD PLATE",active; positive
CC(C)(C)CNC(=O)C=Cc1ccc([N+](=O)[O-])o1,mutagenic call,[2],active; positive
CC(=C\C1=CCOC1=O)/C=C(C)/C=C/C=C(\C)C(=O)[C@]12O[C@H]1[C@@](O)(CCO)NC2=O,mutagenic call,[4],active; positive
Nc1c(C(=O)N/N=C/c2ccccc2)[nH]c2ccccc12,mutagenic call,[1],inactive; negative
same,mutagenic call,"Test System: AMES SALMONELLA TYPHIMURIUM, Strain/Indicator: TA97, Metabolic Activation: S-9 (10%), Method: PREINCUBATION",inactive; negative
same,mutagenic call,[2],inactive; negative
same,mutagenic call,"Test System: AMES SALMONELLA TYPHIMURIUM, Strain/Indicator: TA98, Metabolic Activation: S-9 (10%), Method: PREINCUBATION",inactive; negative
same,mutagenic call,[4],inactive; negative
same,mutagenic call,"Test System: AMES SALMONELLA TYPHIMURIUM, Strain/Indicator: TA100, Metabolic Activation: S-9 (10%), Method: PREINCUBATION",inactive; negative
same,mutagenic call,[6],inactive; negative
same,mutagenic call,"Test System: AMES SALMONELLA TYPHIMURIUM, Strain/Indicator: TA102, Metabolic Activation: S-9 (10%), Method: PREINCUBATION",inactive; negative
CCOC(=O)CNC(=O)C(C)(C)Br,mutagenic call,"Test System: AMES SALMONELLA TYPHIMURIUM, Strain/Indicator: TA100, Metabolic Activation: MOUSE, LIVER, S-9, AROCLOR 1254, Method: STANDARD PLATE",inactive; negative
same,mutagenic call,[5],inactive; negative
c1scc2c1-c1cscc1C1OC21 (stereo unspecified),mutagenic call,[3],active; positive
same,mutagenic call,[5],active; positive
